According to patent US20170239249A1, “QUINAZOLINE-BASED KINASE INHIBITORS” (Bristol-Myers Squibb Company, priority 2014, published 2017):

The molecules below were run against AAK1 (full length human) (Homo sapiens, UniProt Q2M2I8) (assay: HEK281 Cell-Based Assay (phospho-mu2 Western blot in HEK293F cells transfected with AAK1 and AP2M1)). Settings: IC50 (nM), functional potency; inhibition of mu2 phosphorylation in HEK293F cells, 3 hours incubation, 5 concentrations.
Sequence of AAK1 (full length human) (Q2M2I8 1-863 isoform Q2M2I8-2): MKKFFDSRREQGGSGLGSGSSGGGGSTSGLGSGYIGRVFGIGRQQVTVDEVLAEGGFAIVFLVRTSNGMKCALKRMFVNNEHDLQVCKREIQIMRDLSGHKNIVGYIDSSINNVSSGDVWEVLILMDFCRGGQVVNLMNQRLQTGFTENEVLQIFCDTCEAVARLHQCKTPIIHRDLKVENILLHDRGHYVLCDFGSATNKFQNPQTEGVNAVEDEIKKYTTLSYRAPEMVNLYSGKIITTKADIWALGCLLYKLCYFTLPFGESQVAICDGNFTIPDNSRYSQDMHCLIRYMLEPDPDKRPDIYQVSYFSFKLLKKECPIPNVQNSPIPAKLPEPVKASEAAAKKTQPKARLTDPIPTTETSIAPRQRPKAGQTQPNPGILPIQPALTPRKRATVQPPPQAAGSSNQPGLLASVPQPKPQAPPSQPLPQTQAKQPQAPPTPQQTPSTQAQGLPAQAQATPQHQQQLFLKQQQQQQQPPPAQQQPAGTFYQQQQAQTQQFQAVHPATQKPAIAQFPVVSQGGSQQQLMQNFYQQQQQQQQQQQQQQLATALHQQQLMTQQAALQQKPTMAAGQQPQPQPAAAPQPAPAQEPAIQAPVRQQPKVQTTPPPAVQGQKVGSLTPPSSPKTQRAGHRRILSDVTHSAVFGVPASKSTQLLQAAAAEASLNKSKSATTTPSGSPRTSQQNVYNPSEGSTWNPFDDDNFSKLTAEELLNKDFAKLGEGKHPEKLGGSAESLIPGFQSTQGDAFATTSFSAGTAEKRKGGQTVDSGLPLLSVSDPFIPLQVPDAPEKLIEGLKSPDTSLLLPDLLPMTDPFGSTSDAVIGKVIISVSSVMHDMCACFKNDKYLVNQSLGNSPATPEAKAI

Question: `CC(C)CCc1nc(N2CCC2)c2cc(-c3cnco3)ccc2n1` [Example 83, 5-(4-(Azetidin-1-yl)-2-isopentylquinazolin-6-yl)oxazole] was tested. Which IC50 did it give?
Answer: 812 nM

Question: With `CC(C)CCc1nc(NC2CC2)c2cc(-c3cnco3)ccc2n1` [Example 84, N-Cyclopropyl-2-isopentyl-6-(oxazol-5-yl)quinazolin-4-amine] as the molecule, how does the IC50 read?
Answer: 2580 nM

Question: For `CCc1nc(C(N)CC(C)C)nc2cc(OC)c(-c3cnco3)cc12` (stereo not shown) [Example 85, 1-(4-Ethyl-7-methoxy-6-(oxazol-5-yl)quinazolin-2-yl)-3-methylbutan-1-amine], which IC50 is on record?
Answer: 24 nM

Question: With `CCc1nc(C(N)CC(C)C)nc2cc(OC)c(-c3ccncc3)cc12` (stereo not shown) [Example 88, 1-(4-Ethyl-7-methoxy-6-(pyridin-4-yl)quinazolin-2-yl)-3-methylbutan-1-amine] as the molecule, how does the IC50 read?
Answer: 932 nM
